From publication PMC9758846, “Dinuclear and mononuclear metal(II) polypyridyl complexes against drug-sensitive and drug-resistant Plasmodium falciparum and their mode of action” (Malaria Journal, 2022)
Several values for one entry are separate records, joined by “and”; a condition that tells them apart may be missing. Equal values may be shown once.

What was measured:
[1] = test system: Plasmodium falciparum 3D7 (Pf3D7); assay: In vitro anti-malarial activity using SYBR Green I nucleic acid dye; format: cell-based; details: 72 h incubation; read-out: IC50 of Pf3D7
Experimental: (§1) The drug-sensitive strain of P. falciparum 3D7 (Pf3D7) was obtained from the Department of Science, Monash University, Malaysia and cultured as previously described. The artemisinin-resistant strain of P. falciparum IPC5202 (Pf5202) was obtained from BEI Resources and cultured as mentioned in the product sheet. Both strains were maintained in sealed flask at 37 °C in a humidified atmosphere of 5% O2, 5% CO2 and 90% N2. All buffer stock solutions for biological assays were autoclaved at 121 °C for 15 min.
(§2) Previously reported anti-malarial assay was used with slight modification using 1% parasitaemia (ring-stage) and 5% haematocrit treated with test compounds at increasing concentration and incubated for 72 h at 37 °C [21–23]. After the incubation, the assay was terminated by freeze/thaw cycle (− 80 °C overnight before thawing for 2 h) before the addition of lysis buffer containing SYBR Green I dye into each well and mixed thoroughly using the belly dancer for 30 min in the dark. Chloroquine diphosphate salt and artemisinin were used as standard drugs. The fluorescence signal was quantified at 485 nm excitation wavelength and 528 nm emission wavelength. IC50 values of each test compound was determined from a dose response curve by non-linear regression analysis.

[2] = test system: Plasmodium falciparum IPC5202 (Pf5202); assay: as above; format: cell-based; details: 72 h incubation; read-out: IC50 of Pf5202
Experimental: as §1, §2

Pf3D7 [3] = assay: Intracellular ROS level using DCFH-DA; format: cell-based, Plasmodium falciparum
Experimental: (§3) After incubation, packed cells were washed with phosphate buffer saline (PBS) solution. […] The data was expressed as fold change between amount of ROS produced by treated P. falciparum against untreated P. falciparum. Normalization was done with the percentage of parasite viability obtained at each condition. Hydrogen peroxide was used as positive control.

Pf5202 = assay: Intracellular ROS level using DCFH-DA; format: cell-based, Plasmodium falciparum
Experimental: as §3

[4] = molecular target: Pf3D7 20S proteasome caspase-like (C-L) site (Plasmodium falciparum, UniProt Q8I0U7); assay: 20S proteasome inhibition assay using parasite lysate; format: biochemical; details: Suc-LLE-AMC, 30 min
Sequence of Pf3D7 20S proteasome caspase-like (C-L) site (Q8I6T3 entry or part of it): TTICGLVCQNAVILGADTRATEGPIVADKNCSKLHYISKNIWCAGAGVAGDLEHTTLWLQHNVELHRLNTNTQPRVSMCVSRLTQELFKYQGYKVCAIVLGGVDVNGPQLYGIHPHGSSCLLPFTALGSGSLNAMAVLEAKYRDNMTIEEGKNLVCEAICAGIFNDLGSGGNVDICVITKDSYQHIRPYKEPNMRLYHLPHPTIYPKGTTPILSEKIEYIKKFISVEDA
Sequence of Pf3D7 20S proteasome caspase-like (C-L) site (Q8I0U7 entry or part of it): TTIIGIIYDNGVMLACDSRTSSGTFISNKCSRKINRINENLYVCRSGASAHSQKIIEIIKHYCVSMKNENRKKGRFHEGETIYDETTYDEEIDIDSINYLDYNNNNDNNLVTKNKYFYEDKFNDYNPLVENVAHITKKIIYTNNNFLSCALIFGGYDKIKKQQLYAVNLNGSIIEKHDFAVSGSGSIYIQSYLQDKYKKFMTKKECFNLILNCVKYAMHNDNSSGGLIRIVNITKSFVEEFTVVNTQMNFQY
Experimental: (§4) To harvest P. falciparum parasites, intraerythrocytic Pf3D7 and Pf5202 were collected in trophozoite and early schizont stages. Red blood cells were lysed in 0.15% (w/v) saponin lysis buffer for 10 min at 37 °C. After lysis, the parasite pellet was washed once with PBS buffer by centrifuging at 1600 rpm for 5 min. Saponin lysis buffer was added once again to remove all the red blood cells for 10 min at 37 °C, followed by washing with PBS twice and immediately used or kept at − 80 °C. To prepare parasite lysates for proteasome purification, parasite pellet was resuspended with 100 µl of pre-cooled Pierce™ RIPA buffer. A mild protein extraction method was used to prepare parasite extracts. The resuspended parasites were passed 20 times through a needle with a diameter of 0.4 mm in a syringe on ice to lyse the parasite. After 15 min centrifugation at 13,000 xg at 4 °C, the supernatant was removed. Protein concentration was determined by the Bradford assay. The activities of 3 proteolytic sites were determined by fluorescence assay using fluorogenic peptide substrates (Suc-LLVY-AMC for chymotrypsin-like, Boc-LRR-AMC for trypsin-like and Suc-LLE-AMC for caspase-like) Proteasome activities were determined by monitoring the substrate hydrolysis for 30 min at 37 °C with 340 nm excitation and 465 nm emission wavelength. Activity of each proteolytic site were calculated, and the IC50 values were determined from the non-linear regression analysis. VR23 proteasome inhibitor was used as positive control.

[5] = molecular target: Pf3D7 20S proteasome chymotrypsin-like (CT-L) site (Plasmodium falciparum, UniProt Q8IJT1); assay: as above; format: biochemical; details: Suc-LLVY-AMC, 30 min
Sequence of Pf3D7 20S proteasome chymotrypsin-like (CT-L) site (Q8IJT1 entry or part of it): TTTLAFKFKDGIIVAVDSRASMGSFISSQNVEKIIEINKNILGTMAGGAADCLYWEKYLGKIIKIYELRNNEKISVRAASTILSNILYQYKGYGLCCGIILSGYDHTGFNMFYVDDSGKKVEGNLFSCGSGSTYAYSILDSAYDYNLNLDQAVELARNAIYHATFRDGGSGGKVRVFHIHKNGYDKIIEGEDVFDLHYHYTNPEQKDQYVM
Experimental: as §4

[6] = molecular target: Pf3D7 20S proteasome trypsin-like (T-L) site (Plasmodium falciparum, UniProt Q8I6T3); assay: as above; format: biochemical; details: Boc-LRR-AMC, 30 min
Sequence of Pf3D7 20S proteasome trypsin-like (T-L) site (Q8I6T3 entry or part of it): as the sequence (Q8I6T3 entry or part of it) above
Experimental: as §4

[7] = molecular target: Pf5202 20S proteasome caspase-like (C-L) site (Plasmodium falciparum, UniProt Q8I0U7); assay: as above; format: biochemical; details: Suc-LLE-AMC, 30 min
Sequence of Pf5202 20S proteasome caspase-like (C-L) site (Q8I0U7 entry or part of it): as the sequence (Q8I0U7 entry or part of it) above
Sequence of Pf5202 20S proteasome caspase-like (C-L) site (Q8I6T3 entry or part of it, further chain): as the sequence (Q8I6T3 entry or part of it) above
Experimental: as §4

[8] = molecular target: Pf5202 20S proteasome chymotrypsin-like (CT-L) site (Plasmodium falciparum, UniProt Q8IJT1); assay: as above; format: biochemical; details: Suc-LLVY-AMC, 30 min
Sequence of Pf5202 20S proteasome chymotrypsin-like (CT-L) site (Q8IJT1 entry or part of it): as the sequence (Q8IJT1 entry or part of it) above
Experimental: as §4

[9] = molecular target: Pf5202 20S proteasome trypsin-like (T-L) site (Plasmodium falciparum, UniProt Q8I6T3); assay: as above; format: biochemical; details: for IC50: parasite lysate, Boc-LRR-AMC, 30 min; for Factor by which T-L site of Pf5202 is inhibited better than that of Pf3D7: ratio of T-L IC50 values
Sequence of Pf5202 20S proteasome trypsin-like (T-L) site (Q8I6T3 entry or part of it): as the sequence (Q8I6T3 entry or part of it) above
Experimental: as §4

Pf3D7 [10] = assay: Nuclear morphology study by Hoechst staining; format: cell-based, Plasmodium falciparum; details: Pf3D7-infected RBC; 72 h; 0.2-25 µM
Experimental: Detections of haemolytic and apoptotic morphological features were examined on Giemsa-stained thin blood smear. The parasite was then visualised with oil immersion (100 × magnification) using upright brightfield microscope. Another thin blood smear was prepared, fixed with methanol, stained in 10 µg/mL of Hoechst 33,258 stain, and kept in the dark for 30 min at room temperature. A cover slip was applied, and the nuclear morphological examination was then visualized with at 100 × magnification with oil by fluorescence microscope using DAPI filter.
The morphological features of apoptosis of P. falciparum can be indicated by chromosome condensation and fragmentation of the P. falciparum nuclei in the non-nuclear RBC cells. The condensed chromosomes would be stained bright blue. The pRBC cells were treated with (1) and (3) respectively for 72 h, and the resultant pRBC were visualized and photographed at 100 × magnification with oil immersion. Typical images were enlarged to look at single cells and are depicted in Fig. 9 for Pf3D7 and Fig. 10 for Pf5202. […] The nuclei of P. falciparum trophozoites in pRBC were observed under brightfield microscope as dots, and they were stained brighter blue which increased in fluorescence intensity with increasing concentration of copper(II) complexes of (1) and (3) from 0.2, 1, 5 to 25 µM compared to the untreated pRBC.

| Compound | IC50 [1] [nM] | IC50 [2] | fold change in ROS (Pf3D7 [3]; 24 h, 0.2 µM) [fold] | fold change in ROS (Pf3D7 [3]; 24 h, 1.0 µM) [fold] | fold change in ROS (Pf3D7 [3]; 24 h, 5.0 µM) [fold] | fold change in ROS (Pf3D7 [3]; 24 h, 25.0 µM) [fold] | fold change in ROS (Pf3D7 [3]; 48 h, 0.2 µM) [fold] | fold change in ROS (Pf3D7 [3]; 48 h, 1.0 µM) [fold] | fold change in ROS (Pf3D7 [3]; 48 h, 5.0 µM) [fold] | fold change in ROS (Pf3D7 [3]; 48 h, 25.0 µM) [fold] | fold change in ROS (Pf3D7 [3]; 72 h, 0.2 µM) [fold] | fold change in ROS (Pf5202; 24 h, 0.2 µM) [fold] | fold change in ROS (Pf5202; 48 h, 0.2 µM) [fold] | fold change in ROS (Pf5202; 48 h, 1.0 µM) [fold] | fold change in ROS (Pf5202; 48 h, 5.0 µM) [fold] | fold change in ROS (Pf5202; 48 h, 25.0 µM) [fold] | fold change in ROS (Pf5202; 72 h, 5.0 µM) [fold] | IC50 [4] [nM] | IC50 [5] [nM] | IC50 [6] [nM] | also measured |
| --- | --- | --- | --- | --- | --- | --- | --- | --- | --- | --- | --- | --- | --- | --- | --- | --- | --- | --- | --- | --- | --- |
| O.O=[N+]([O-])[O-].O=[N+]([O-])[O-].[Cu+2].c1cnc2c(c1)ccc1cccnc12.c1cnc2c(c1)ccc1cccnc12 [Complex 1, [Cu(phen)2](NO3)2·H2O] | 3510 ± 470 | 17900 ± 2730 nM | 1.44 ± 0.10 | 1.54 ± 0.26 | 2.28 ± 0.25 | 7.59 ± 0.46 | 2.45 ± 0.41 | 3.20 ± 0.19 | 4.54 ± 0.52 | 6.83 ± 0.83 | 0.00 ± 0.10 | 1.04 ± 0.03 | 0.32 ± 0.02 | 0.33 ± 0.05 | 0.72 ± 0.12 | 0.52 ± 0.26 | 1.69 ± 0.22 | > 25000 | > 25000 | 2390 ± 130 | fold change in ROS (Pf5202; 24 h, 1.0 µM): 0.86 ± 0.04 fold; fold change in ROS (Pf5202; 24 h, 5.0 µM): 0.59 ± 0.02 fold; fold change in ROS (Pf5202; 24 h, 25.0 µM): 0.04 ± 0.03 fold; fold change in ROS (Pf5202; 72 h, 0.2 µM): 1.09 ± 0.07 fold; fold change in ROS (Pf5202; 72 h, 1.0 µM): 1.33 ± 0.41 fold; IC50 [7]: > 25000 nM; IC50 [8]: > 25000 nM; IC50 [9]: 1620 ± 300 nM; Factor by which T-L site of Pf5202 is inhibited better than that of Pf3D7 [9]: about 1.5 ×; Type of cell death by nuclear morphology (Hoechst) (Pf3D7 [10]): underwent apoptosis |
| [Cu(phen)(NO3)(H2O)-4,4′-bipy-Cu(phen)(NO3)(H2O)](NO3)2 [Complex 3] | 900 ± 120 | 2200 nM and 2210 nM | 1.76 ± 0.47 | 1.13 ± 0.56 | 2.30 ± 0.86 | 5.36 ± 0.30 | 1.20 ± 0.64 | 1.28 ± 0.31 | 3.80 ± 1.18 | 5.46 ± 0.25 | 1.49 ± 0.10 | 0.04 ± 0.33 | 0.52 ± 0.60 | 0.66 ± 0.50 | 2.53 ± 0.85 | 3.39 ± 0.66 | 8.43 ± 0.60 | > 25000 | > 25000 | 2640 ± 350 | fold change in ROS (Pf3D7 [3]; 72 h, 1.0 µM): 1.77 ± 0.24 fold; fold change in ROS (Pf3D7 [3]; 72 h, 5.0 µM): 1.68 ± 0.41 fold; fold change in ROS (Pf3D7 [3]; 72 h, 25.0 µM): 2.74 ± 0.24 fold; IC50 [7]: > 25000 nM; IC50 [8]: > 25000 nM; IC50 [9]: 1720 ± 130 nM; Factor by which T-L site of Pf5202 is inhibited better than that of Pf3D7 [9]: about 1.5 ×; Type of cell death by nuclear morphology (Hoechst) (Pf3D7 [10]): underwent apoptosis |
